Measured values published in PMC10363607, “Identification of novel and potent dual-targeting HDAC1/SPOP inhibitors using structure-based virtual screening, molecular dynamics simulation and evaluation of in vitro and in vivo antitumor activity” (Frontiers in Pharmacology, 2023).
Entries after “also recorded” stand apart in the source; their conditions may differ. Where two headings read alike, the source gives them in different places. One block for each compound: values may come before it.

Assays:
[1] = target: T1, HDAC1 (Homo sapiens, UniProt Q13547); experiment: In vitro HDAC1 inhibition, fluorescent substrate Boc-Lys(acetyl)-AMC; type: biochemical
T1 construct: purchased Abcam
Procedure: In the 96-well plates, different concentrations of the tested compound (50 μL) were added to 10 μl of HDAC1 enzyme solution. After incubation at 37°C for 5 min, 40 μl of the fluorescent substrate Boc-Lys (acetyl)-AMC was then added to the mixture. The plates were incubated at 37°C for 0.5 h, and the developer (100 μl) containing trypsin and TSA was added to the mixture. Finally, the fluorescence intensity at wavelengths of 390 nm and 460 nm was measured 20 min later by a microplate reader (Perkin Elemer).
(§1) All experiments were performed in triplicate. Competition binding data were analyzed using GraphPad Prism 6.0 software (GraphPad Software Inc, San Diego, CA) and the inhibition constants (IC50) were calculated by nonlinear curve fitting.

[2] = target: T2, SPOP (Homo sapiens, UniProt O43791); experiment: SPOP fluorescence polarization (FP) competition assay with FITC-puc_SBC1; type: binding
T2 construct: purchased Abcam
Procedure: The enzymatic activity of SPOP was determined by a previously described fluorescence polarization (FP) assay ([Guo et al., 2016]). FITC-labeled peptide substrate puc_SBC1 (FITC-puc_SBC1, FITC-[…]) was purchased (GL Biochem Ltd, Shanghai). Serial dilutions of competitors for SPOP23-337 were prepared from the 20 mM DMSO stocks. The diluted compound was added to the reaction mixture in 100 μl of HEPES (25 mM, pH 7.5) containing 10 μM SPOP and 50 nM FITC-puc_SBC1. After incubation for 1 h at 4°C, FP was measured on a microplate reader (Perkin Elemer) using the wavelengths of 480 nm for excitation and 535 nm for emission, respectively.
as §1

[3] = system: 769-P cell; experiment: MTT cell growth inhibition, 769-P; type: cell-based; conditions: 72 h, read-out: 769-P cell proliferation IC50
Procedure: (§2) According to the previously reported method ([Namwan et al., 2022]; [Zhao et al., 2023]), at a concentration of 5 × 10^4/ml, cell lines were planted in 96-well plates and cultivated for an entire night. The cells were incubated at 37 °C for 72 h while being exposed to various inhibitor concentrations. And then, MTT stock solution (5 mg/ml) was added to each well and incubated for an additional 4 h. Dimethyl sulfoxide (DMSO) was used to dissolve the insoluble crystals, and a microplate reader was used to detect absorbance at 570 nm. Survival ratio (%) was calculated using the following equation: survival ratio (%) = (A treatment /A control ) × 100%. Data were analyzed using the analysis software GraphPad Prism 6.0 software (GraphPad Software Inc., San Diego, CA), and the half-maximal inhibitory concentration (IC50) values were calculated by the dose-response curve visualized using nonlinear regression (curve fit).

[4] = system: OS-RC-2 cell; experiment: MTT cell growth inhibition, OS-RC-2; type: cell-based; conditions: read-out: OS-RC-2 cell proliferation IC50
Procedure: as §2

[5] = system: SPOP and HDAC levels in HCT-116 cells; experiment: Western blot of SPOP and HDAC levels in HCT-116 cells; type: cell-based; conditions: HCT-116 cells, 0, 0.5 and 2 μM, 72 h
Procedure: (§3) The tumor cells (10^6 cells/well) were seeded onto 6-well plates and allowed to culture for 24 h. The cells were incubated with various concentrations (0, 0.5 and 2 μM) of HS-2 at 37°C for 72 h. Tumor cells were washed and lysed with RIPA. Protein samples were detected by western blot as described previously ([Zheng et al., 2021]).

[6] = system: SPOP and HDAC levels in A498 cells; experiment: Western blot of SPOP and HDAC levels in A498 cells; type: cell-based; conditions: A498 cells, 0, 0.5 and 2 μM, 72 h
Procedure: as §3

[7] = system: HCT-116 tumor cells; experiment: In vivo anticancer activity, HCT-116 xenograft; conditions: six times; for tumor volume versus control group: HCT-116 xenograft, nude mice
Procedure: According to the previously reported in vivo inhibition method, we injected HCT-116 tumor cells (200 μl, 1 × 10^7 cells) into the right subcutaneous space of 6-week-old BALB/c nude mice (Experimental Animal Center of Yangzhou University (Yangzhou, China) ([Zheng et al., 2021]). All experimental protocols were approved by the Animal Ethics Committee of China Pharmaceutical University. When the tumors grew to 90–120 mm^3, the mice were randomly divided into three groups (five mice per group) and intraperitoneally administered with vehicle (PBS buffer pH 7.4, volume capacity: 0.2 ml), compound HS-2 (volume capacity: 0.2 ml in PBS vehicle, 5 mg/kg), and compound HS-2 (volume capacity: 0.2 ml in PBS vehicle, 10 mg/kg) every 3 days for a total of six times. Tumor volume and weight were measured every 3 days. Tumor volume was calculated using the formula (c × c × d)/2 (c, the smallest diameter; d, the largest diameter).

[8] = FP, 10 μM SPOP, 50 nM FITC-puc_SBC1, triplicate
[9] = 5 and 10 mg/kg intraperitoneally every 3 days

T1 sequence (Q13547 whole entry): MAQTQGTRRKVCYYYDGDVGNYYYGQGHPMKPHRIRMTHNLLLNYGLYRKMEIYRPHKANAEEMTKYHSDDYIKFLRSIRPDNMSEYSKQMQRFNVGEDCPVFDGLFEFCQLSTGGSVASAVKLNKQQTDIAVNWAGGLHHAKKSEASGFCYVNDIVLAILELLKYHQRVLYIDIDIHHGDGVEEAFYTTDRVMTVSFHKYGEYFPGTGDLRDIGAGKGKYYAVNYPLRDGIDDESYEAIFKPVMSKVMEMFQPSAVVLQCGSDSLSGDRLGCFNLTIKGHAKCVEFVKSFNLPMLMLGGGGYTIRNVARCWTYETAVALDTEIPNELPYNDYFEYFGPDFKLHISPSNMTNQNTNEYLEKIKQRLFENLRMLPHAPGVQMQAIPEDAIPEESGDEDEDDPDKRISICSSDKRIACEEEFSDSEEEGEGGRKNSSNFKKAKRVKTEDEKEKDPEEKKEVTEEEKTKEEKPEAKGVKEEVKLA
T2 sequence (O43791 23-337): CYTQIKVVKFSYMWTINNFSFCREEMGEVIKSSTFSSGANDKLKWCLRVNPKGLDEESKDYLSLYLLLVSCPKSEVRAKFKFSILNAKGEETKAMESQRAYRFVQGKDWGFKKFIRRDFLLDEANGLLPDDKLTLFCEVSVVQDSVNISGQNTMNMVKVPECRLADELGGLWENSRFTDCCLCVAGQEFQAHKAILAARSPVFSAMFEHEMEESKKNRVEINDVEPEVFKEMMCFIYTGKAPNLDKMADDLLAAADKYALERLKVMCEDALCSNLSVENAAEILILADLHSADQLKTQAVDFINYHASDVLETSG

Compound: Cc1cccn2c(=O)c3cc(ONCCCCCC(=O)NO)c(=N)n(CCc4ccc(C(F)(F)F)cc4)c3nc12 [HS-2]
- IC50 ([1]; triplicate): 0.0076 ± 0.0004 µM
- HDAC1 inhibitory effect relative to Vorinostat (IC50 ratio) ([1]; versus positive control Vorinostat): about 1.1 times
- IC50 [2, 8]: 9.1 ± 0.7 µM
- SPOP inhibitory effect relative to SPOP-IN-6b (IC50 ratio) ([2]; versus positive control SPOP-IN-6b): ~3.8 times
- IC50 [3]: 5.2 ± 1.1 µM
- IC50 ([3]; Homo sapiens, 769-P): < 10 µM
- IC50 ([4]; 72 h): 9.3 ± 1.7 µM
- IC50 ([4]; Homo sapiens, OS-RC-2, 72 h): < 10 µM
- HDAC level (western blot) [5]: reduced
- SPOP level (western blot) [5]: reduced
- HDAC level (western blot) [6]: reduced
- SPOP level (western blot) [6]: reduced
- tumor volume versus control group ([7]; 5 mg/kg intraperitoneally every 3 days): significantly less tumor volume than the control group
- tumor volume versus control group ([7]; 10 mg/kg intraperitoneally every 3 days): significantly less tumor volume than the control group
- body weight of mice [7, 9]: no significant differences
- toxicity in vivo [7, 9]: no significant toxicity

Compound: O=C(CCCCCCC(=O)Nc1ccccc1)NO [Vorinostat, reference compound]
- SPOP (IC50, μM) [2, 8]: without affecting SPOP activity; also recorded: no binding

Compound: Cc1cccn2c(=O)c3cc(C(=O)NCCCN4CCOCC4)c(=N)n(CCc4ccccc4)c3nc12 [SPOP-IN-6b, reference compound]
- HDAC1 (IC50, nM) ([1]; triplicate): without an inhibitory effect on HDAC1; also recorded: no binding
- IC50 [2, 8]: 34.6 ± 3.1 µM

Second part, the compound after the results:

- IC50 ([1]; triplicate): 0.0115 ± 0.0013 µM
- IC50 [2, 8]: 14.9 ± 1.2 µM
Compound: Cc1cccn2c(=O)c3cc(ONCCCCCC(=O)NO)c(=N)n(CCc4ccc(Cl)c(F)c4)c3nc12 [HS-3]

- IC50 ([1]; triplicate): 0.0137 ± 0.0011 µM
- IC50 [2, 8]: 18.3 ± 2.5 µM
Compound: Cc1cccn2c(=O)c3cc(ONCCCCCC(=O)NO)c(=N)n(CCc4cccs4)c3nc12 [HS-1]

- IC50 ([1]; triplicate): 0.0184 ± 0.0019 µM
- IC50 [2, 8]: 23.2 ± 2.7 µM
Compound: CCN(CC)CCn1c(=N)c(ONCCCCCC(=O)NO)cc2c(=O)n3cccc(C)c3nc21 [HS-4]
